# Measurements taken from patent US12551499B2 (Atea Pharmaceuticals, Inc., priority 2020, dated 2026).
# Several values for one entry are separate records, joined by “and”; a condition that tells them apart may be missing. Equal values may be shown once. Read-outs that look alike come from different tables or passages of the source.
# Experiments:
# [1] = test system: human coronavirus alpha-229E; experiment: Visual CPE assay, coronavirus alpha-229E in Huh7 cells; type: cell-based; details: Huh-7
# Method: (§1) Huh7 cells were seeded in 96-well plates at a concentration that yielded 80-100% confluent monolayers in each well after overnight incubation. Compound 1A was dissolved in DMSO to 10 mg/mL and 8 half-log serial dilutions in test medium (modified Eagle's medium containing 5% fetal bovine serum and […] gentamicin) were prepared with the highest concentration of 50 μg/mL. 100 μL of each concentration were added to 5 test wells on the 96-well plate and 3 wells were infected with test virus in test medium (≤100 CCID50 per well). An equivalent amount of test medium was added to the remaining test wells to assess toxicity to uninfected cells. Six wells were infected to serve as untreated virus controls. Media only was added to 6 wells to serve as cell controls. Plates were incubated at 37° C. in a humidified 5% CO2 atmosphere until cytopathic effect (CPE) was observed microscopically.
# Huh7 cells = experiment: Visual cytotoxicity in uninfected Huh7 cells; type: cell-based, human
# Method: as §1
# SARS-CoV-2 (WA1) = experiment: Virus yield reduction assay, SARS-CoV-2 in dNHBE / HAE cells; type: cell-based
# Method: The antiviral activity of Compound 1A was next evaluated against SARS-CoV-2 (WA1) using differentiated normal human bronchial epithelial (dNHBE; HAE (human airway epithelial) cells made to order by MatTek Corporation (Ashland, MA).
# Cell Culture: dNHBE cells were grown on 6 mm mesh disks and arrived in kits with either 12- or 24-well transwell inserts. During transportation the tissues were stabilized on a sheet of agarose, which was removed upon receipt. One insert was estimated to consist of approximately 1.2×10^6 cells. Kits of cell inserts (EpiAirway™ AIR-100, AIR-112) originated from a single donor, #9831, a healthy, non-smoking person. The cells have unique properties in forming layers, the apical side of which is exposed only to air and that creates a mucin layer. Upon arrival, the cell transwell inserts were immediately transferred to individual wells of a 6-well plate according to manufacturer's instructions, and 1 mL of MatTek's proprietary culture medium (AIR-100-MM) was added to the basolateral side, whereas the apical side was exposed to a humidified 5% CO2 environment. Cells were cultured at 37° C. for one day before the start of the experiment. After the 24 hour equilibration period, the mucin layer, secreted from the apical side of the cells, was removed by washing with 400 μL pre-warmed 30 mM HEPES buffered saline solution 3×. Culture medium was replenished following the wash steps.
# Viruses: Virus was diluted in AIR-100-MM medium before infection, yielding a multiplicity of infection (MOI) of approximately 0.0015 CCID50 per cell.
# The cells were maintained at the air-liquid interface.
# Determination of virus titers from each treated cell culture: Vero 76 cells were seeded in 96-well plates and grown overnight (37° C.) to confluence. Samples containing virus were diluted in 10-fold increments in infection medium and 200 μL of each dilution transferred into respective wells of a 96-well microtiter plate. Four microwells were used for each dilution to determine 50% viral endpoints. After 5 days of incubation, each well was scored positive for virus if any cytopathic effect (CPE) was observed as compared with the uninfected control and counts were confirmed for endpoint on days 6 and 7. […] The day 5 values were reported. Untreated, uninfected cells were used as the cell controls.
# The antiviral activities of test compounds were evaluated against SARS-CoV-2 (USA-WA1/2020) using made to order human airway epithelial (HAE) cells.
# Cell Culture: HAE cells were grown on 6 mm mesh disks and arrived in kits with either 12- or 24-well transwell inserts. During transportation the tissues were stabilized on a sheet of agarose, which was removed upon receipt. One insert was estimated to consist of approximately 1.2×10^6 cells. Kits of cell inserts (EpiAirway™ AIR-100 or AIR-112) originated from a single donor, #9831, a healthy, non-smoking person. The cells form polarized monolayers, the apical side of which is exposed to air and creates a mucin layer. Upon arrival, the cell transwell inserts were immediately transferred to individual wells of a 6-well plate according to the manufacturer's instructions, and 1 mL of MatTek's proprietary culture medium (AIR-100-MM) was added to the basolateral side, whereas the apical side was exposed to a humidified 5% CO2 environment. Cells were cultured at 37° C. in a humidified atmosphere containing 5% CO2 for one day before the start of the experiment. After the 24-h equilibration period, the mucin layer, secreted from the apical side of the cells, was removed by washing with 400 μL pre-warmed 30 mM HEPES buffered saline solution 3×. Culture medium was replenished following the wash steps.
# Viruses: Virus was diluted in AIR-100-MM medium before infection to yield a MOI when added to cultures of approximately 0.0015 CCID50 per cell.
# Select compounds of the present invention were tested in a SARS-CoV-2 assay. […]
# MERS-CoV (EMC) = type: cell-based; details: MERS-CoV versus other CoVs
# [2] = test system: human airway epithelial (HAE) cells
# RD cells = details: human
# [3] = Plasma PK in non-human primates after oral Compound 2A; details: monkey plasma, oral Compound 2A 60 mg/kg then 30 mg/kg every 12 h, steady state
# [4] = test system: human bronchial epithelial cells; experiment: Triphosphate formation in human bronchial epithelial cells; details: human nasal and bronchial epithelial cells, up to 100 μM
# [5] = test system: human bronchial epithelial cells; details: 10 μM
# [6] = test system: human nasal epithelial cells; details: 10 μM
# [7] = male, cynomolgus monkey, in vivo, 12 h
# in vivo = details: male, cynomolgus monkey, Mean Intracellular Compound 1-6 Concentration
# [8] = test system: human airway epithelial (HAE) cells; experiment: Cytotoxicity in dNHBE / HAE cells by visual inspection; details: visual toxicity, Table 11
structure (smiles),measurement,setting,value
CNc1nc(N)nc2c1ncn2[C@@H]1O[C@H](CO[P@@](=O)(N[C@@H](C)C(=O)OC(C)C)Oc2ccccc2)[C@@H](O)[C@@]1(C)F [Compound 1A],EC50,[1],1000 nM
same,CC50,Huh7 cells; Alpha-229E row,> 50000 nM
same,CC50,Huh7 cells; Beta-OC43 row,> 50000 nM
same,replicate EC90 determinations,"SARS-CoV-2 (WA1); SARS-CoV-2 (WA1) in dNHBE, single replicates",0.41 µg/mL
same,EC90,"SARS-CoV-2 (WA1); SARS-CoV-2 in HAE (dNHBE) cells, Table 11, read-out: VYR Assay EC90",460 nM and 520 nM
same,EC90,"SARS-CoV-2 (WA1); SARS-CoV-2 in HAE, footnotes f, g, h of Table 5, read-out: EC90, single replicates",700 nM and 420 nM
same,EC90,"SARS-CoV-2 (WA1); Severe acute respiratory syndrome coronavirus 2, HAE, SARS-CoV-2 in HAE (dNHBE) cells, Table 11, read-out: VYR Assay EC90",630 nM
same,difference of activity between MERS-CoV and other CoVs,MERS-CoV (EMC),30 fold
same,cytotoxicity,Huh-7 cells,No cytotoxicity was detected
same,CC50,Huh-7 cells; human,> 50000 nM
same,VYR Assay CC50,[2],no visual tox no visual tox no visual tox
same,CC50,RD cells,> 86000 nM
same,AUC0-12 h,[3],0.44 µM·h
same,Cmax,[3],640 nM
same,T1/2,[3],44.4 min
same,Tmax,[3],30 to 60 min
same,toxicity,[4],no toxicity was observed
C[C@@]1(F)[C@H](O)[C@@H](COP(=O)(O)OP(=O)(O)OP(=O)(O)O)O[C@H]1n1cnc2c(=O)[nH]c(N)nc21 [Compound 1-6],Mean Intracellular Compound 1-6 Concentration,[5]; 0 h,698 µM
same,Mean Intracellular Compound 1-6 Concentration,[5]; 15 h,560 µM
same,Mean Intracellular Compound 1-6 Concentration,[5]; 24 h,462 µM
same,Mean Intracellular Compound 1-6 Concentration,[5]; 48 h,290 µM
same,Mean Intracellular Compound 1-6 Concentration,[5]; 72 h,217 µM
same,Mean Intracellular Compound 1-6 Concentration,[6]; 0 h,236 µM
same,Mean Intracellular Compound 1-6 Concentration,[6]; 15 h,204 µM
same,Mean Intracellular Compound 1-6 Concentration,[6]; 24 h,170 µM
same,Mean Intracellular Compound 1-6 Concentration,[6]; 48 h,107 µM
same,Mean Intracellular Compound 1-6 Concentration,[6]; 72 h,73.8 µM
same,Mean Intracellular Compound 1-6 Concentration,[7],0.089 µM
same,concentration at 24 h,in vivo,32 nM
CCC(CC)COC(=O)[C@H](C)N[P@](=O)(OC[C@H]1O[C@@](C#N)(c2ccc3c(N)ncnn23)[C@H](O)[C@@H]1O)Oc1ccccc1 [Remdesivir],VYR Assay CC50,[8],no visual tox no visual tox no visual tox no visual tox
